18 compounds from patent US8642628B2, “Pyrrole inhibitors of S-nitrosoglutathione reductase” (N30 Pharmaceuticals, Inc., priority 2008, dated 2014) can be followed below.

The test addresses T1, GSNOR (GSNO Reductase) (Homo sapiens, UniProt P11766).
T1 construct: made in house; host or cells: E. coli (arabinose-induced)
Put plainly: GSNOR assay (inhibition of GSNOR activity, change in 340 nm absorbance). The note with it: 100 mM NaPO4 pH 7.4, 0.240 mM GSNO, 0.300 mM NADH, 0.5 μg/mL GSNO Reductase, 1% DMSO, 25° C.; values given as 'about' bounds; read-out: IC50 (GSNOR inhibitor activity). Type of test: biochemical. The procedure: Various compounds were tested in vitro for their ability to inhibit GSNOR activity. […] GSNOR expression and purification is described in Biochemistry 2000, 39, 10720-10729.
GSNOR fermentation: Pre-cultures were grown from stabs of a GSNOR glycerol stock in 2XYT media containing 100 ug/ml ampicillin after an overnight incubation at 37° C. Cells were then added to fresh 2XYT (4L) containing ampicillin and grown to an OD (A600) of 0.6-0.9 at 37° C. before induction. GSNOR expression was induced with 0.1% arabinose in an overnight incubation at 20° C.
GSNOR Purification: E. coli cell paste was lysed by nitrogen cavitation and the clarified lysate purified by Ni affinity chromatography on an AKTA FPLC (Amersham Pharmacia). The column was eluted in 20 mM Tris pH 8.0/250 mM NaCl with a 0-500 mM imidazole gradient. […] GSNOR was recovered in the flowthrough fraction and for crystallography is further purified by Q-Sepharose and Heparin flowthrough chromatography in 20 mM Tris pH 8.0, 1 mM DTT, 10 uM ZnSO4.
GSNOR assay: GSNO and Enzyme/NADH Solutions are made up fresh each day. The Solutions are filtered and allowed to warm to room temperature. GSNO Solution: 100 mM NaPO4 (pH 7.4), 0.480 mM GSNO. 396 μL of GSNO Solution is added to a cuvette followed by 8 μL of test compound in DMSO (or DMSO only for full reaction control) and mixed with the pipette tip. Compounds to be tested are made up at a stock concentration of 10 mM in 100% DMSO. 2 fold serial dilutions are done in 100% DMSO. 8 μL of each dilution are added to an assay so that the final concentration of DMSO in the assay is 1%. The concentrations of compounds tested range from 100 to 0.003 μM. Enzyme/NADH Solution: 100 mM NaPO4 (pH 7.4), 0.600 mM NADH, 1.0 μg/mL GSNO Reductase. 396 μL of the Enzyme/NADH Solution is added to the cuvette to start the reaction. The cuvette is placed in the Cary 3E UV/Visible Spectrophotometer and the change in 340 nm absorbance/min at 25° C. is recorded for 3 minutes. The assays are done in triplicate for each compound concentration. IC50's for each compound are calculated using the standard curve analysis in the Enzyme Kinetics Module of SigmaPlot.
Final assay conditions: 100 mM NaPO4, pH 7.4, 0.240 mM GSNO, 0.300 mM NADH, 0.5 μg/mL GSNO Reductase and 1% DMSO. Final volume: 800 μL/cuvette.

T1 sequence (P11766 whole entry): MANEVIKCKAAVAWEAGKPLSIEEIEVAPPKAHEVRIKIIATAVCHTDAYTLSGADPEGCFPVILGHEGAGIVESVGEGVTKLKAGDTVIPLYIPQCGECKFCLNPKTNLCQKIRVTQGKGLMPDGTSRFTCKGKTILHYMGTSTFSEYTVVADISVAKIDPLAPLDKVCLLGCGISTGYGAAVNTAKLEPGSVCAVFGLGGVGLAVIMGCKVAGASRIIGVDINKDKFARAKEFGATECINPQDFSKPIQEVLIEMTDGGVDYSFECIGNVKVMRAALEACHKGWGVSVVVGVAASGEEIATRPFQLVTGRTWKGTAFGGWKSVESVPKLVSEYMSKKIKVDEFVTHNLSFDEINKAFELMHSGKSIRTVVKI

In the case of `COc1ccc(-c2ccn(CCC(=O)O)c2-c2ccc(C(N)=O)cc2C)cc1` [Example 1, 3-(2-(4-carbamoyl-2-methylphenyl)-3-(4-methoxyphenyl)-1H-pyrrol-1-yl)propanoic acid], the IC50 is < 1000 nM.
`COc1ccc(-c2ccn(CC(C)C(=O)O)c2-c2ccc(C(N)=O)cc2C)cc1` (stereo not drawn) [Example 3, 3-(2-(4-carbamoyl-2-methylphenyl)-3-(4-methoxyphenyl)-1H-pyrrol-1-yl)-2-methylpropanoic acid]: the 50% inhibitory concentration (IC50) was < 5000 nM.
The figure for `Cc1cc(C(N)=O)ccc1-c1c(-c2ccc(-n3ccnc3)cc2)ccn1CCC(=O)O` [Example 5, 3-(3-(4-(1H-imidazol-1-yl)phenyl)-2-(4-carbamoyl-2-methylphenyl)-1H-pyrrol-1-yl)propanoic acid] is < 1000 nM; for `COc1ccc(-n2ccc(CCC(=O)O)c2-c2ccc(C(N)=O)cc2C)cc1` [Example 6, 3-(2-(4-carbamoyl-2-methylphenyl)-1-(4-methoxyphenyl)-1H-pyrrol-3-yl)propanoic acid] it is < 1000 nM.
With `COc1ccc(-c2ccn(CC(F)(F)C(=O)O)c2-c2ccc(C(N)=O)cc2C)cc1` [Example 9, 3-(2-(4-carbamoyl-2-methylphenyl)-3-(4-methoxyphenyl)-1H-pyrrol-1-yl)-2,2-difluoropropanoic acid] the figure was < 5000 nM.
With `Cc1cc(C(N)=O)ccc1-c1c(CCC(=O)O)ccn1-c1ccc(-n2ccnc2)cc1` [Example 13, 3-(1-(4-(1H-imidazol-1-yl)phenyl)-2-(4-carbamoyl-2-methylphenyl)-1H-pyrrol-3-yl)propanoic acid] the figure was < 1000 nM; with `COc1cc(Cl)ccc1-n1ccc(CCC(=O)O)c1-c1ccc(C(N)=O)cc1C` [Example 14, 3-(2-(4-carbamoyl-2-methylphenyl)-1-(4-chloro-2-methoxyphenyl)-1H-pyrrol-3-yl)propanoic acid], < 1000 nM; with `COc1ccc(-c2ccn(-c3ccc(C(=O)O)c(O)c3)c2-c2ccc(C(N)=O)cc2C)cc1` [Example 15, 4-(2-(4-carbamoyl-2-methylphenyl)-3-(4-methoxyphenyl)-1H-pyrrol-1-yl)-2-hydroxybenzoic acid], < 1000 nM.
On to `COc1ccc(-c2ccn(-c3ccc(C(=O)O)c(F)c3)c2-c2ccc(C(N)=O)cc2C)cc1` [Example 16, 4-(2-(4-carbamoyl-2-methylphenyl)-3-(4-methoxyphenyl)-1H-pyrrol-1-yl)-2-fluorobenzoic acid], for which the half-maximal inhibitory concentration (IC50) was < 5000 nM.
Consider `COc1ccc(-c2ccn(-c3ccc(O)c([N+](=O)[O-])c3)c2-c2ccc(C(N)=O)cc2C)cc1` [Example 17, 4-(1-(4-hydroxy-3-nitrophenyl)-3-(4-methoxyphenyl)-1H-pyrrol-2-yl)-3-methylbenzamide], for which the concentration for half-maximal inhibition (IC50) was < 1000 nM.
The figure for `COc1ccc(-c2ccn(-c3ccc(C(=O)O)cc3)c2-c2ccc(C(N)=O)cc2C)cc1` [Example 19, 4-(2-(4-carbamoyl-2-methylphenyl)-3-(4-methoxyphenyl)-1H-pyrrol-1-yl)benzoic acid] is < 1000 nM; for `COc1ccc(-c2ccn(-c3ccc(C(=O)O)c(Cl)c3)c2-c2ccc(C(N)=O)cc2C)cc1` [Example 20, 4-(2-(4-carbamoyl-2-methylphenyl)-3-(4-methoxyphenyl)-1H-pyrrol-1-yl)-2-chlorobenzoic acid] it is < 5000 nM; for `COc1ccc(-c2ccn(-c3ccc(O)c(F)c3)c2-c2ccc(C(N)=O)cc2C)cc1` [Example 23, 4-(1-(3-fluoro-4-hydroxyphenyl)-3-(4-methoxyphenyl)-1H-pyrrol-2-yl)-3-methylbenzamide] it is < 1000 nM.
The figure for `COc1ccc(-c2ccn(-c3cc(F)c(O)c(F)c3)c2-c2ccc(C(N)=O)cc2C)cc1` [Example 25, 4-(1-(3,5-difluoro-4-hydroxyphenyl)-3-(4-methoxyphenyl)-1H-pyrrol-2-yl)-3-methylbenzamide] is < 1000 nM.
Consider `COc1ccc(-c2ccn(-c3ccc(O)cn3)c2-c2ccc(C(N)=O)cc2C)cc1` [Example 26, 4-(1-(5-hydroxypyridin-2-yl)-3-(4-methoxyphenyl)-1H-pyrrol-2-yl)-3-methylbenzamide], for which the IC50 was < 5000 nM.
With `COc1ccc(-c2ccn(-c3ccc(O)c(C(=O)O)c3)c2-c2ccc(C(N)=O)cc2C)cc1` [Example 27, 5-(2-(4-carbamoyl-2-methylphenyl)-3-(4-methoxyphenyl)-1H-pyrrol-1-yl)-2-hydroxybenzoic acid] the figure was < 1000 nM; with `Cc1cc(C(N)=O)ccc1-c1c(-c2ccc(-n3ccnc3C)cc2)ccn1-c1ccc(O)c(F)c1` [Example 29, 4-(1-(3-fluoro-4-hydroxyphenyl)-3-(4-(2-methyl-1H-imidazol-1-yl)phenyl)-1H-pyrrol-2-yl)-3-methylbenzamide], < 1000 nM; with `Cc1cc(C(N)=O)ccc1-c1c(-c2ccc(-n3ccnc3C)cc2)ccn1-c1cc(F)c(O)c(F)c1` [Example 30, 4-(1-(3,5-difluoro-4-hydroxyphenyl)-3-(4-(2-methyl-1H-imidazol-1-yl)phenyl)-1H-pyrrol-2-yl)-3-methylbenzamide], < 1000 nM.
